# Key:
# Format in all cases: cell-based, human
# HT1080 cells = assay: Cell proliferation test (XTT), HT1080; conditions: HT1080, peptide 0.5% and 1%, serum-free medium, 5th hour
# Experimental: (§1) HT1080 cells (A) and HBL100 cells (B) were seeded in 96-well plates at a rate of 10,000 cells per well. After 24 hours, the culture medium was removed and replaced with serum-free medium containing the peptide quantities given in the graphs and reagent XTT. The plates were then placed in the incubator at 37° C. and absorbance readings were taken at 1 h, 2 h, 3 h, 4 h and 5 h. Peptide-free controls were carried out on the same plate.
# (§2) The effect of the peptide on cell proliferation was analysed with the aid of a calorimetric test (Cell Proliferation Kit XTT, Roche Diagnostics, Meylan, France) on the cells use for the cell adhesion test, i.e. HT1080, A431, HBL100 cells and normal human keratinocytes from young and elderly individuals.
# (§3) The chemical reaction used in the test is based on the production of NADPH by living cells, leading to the reduction of yellow tetrazolium XTT salts to orange formazan salts. Absorbance was measured at 490 nm using an ELISA plate reader. Cells were seeded in 96-well plates at a rate of 10,000 cells per well (6 wells/condition) in KBM-2 culture medium. After 24 hours in culture at 37° C. with 5% CO2, the culture medium was removed and replaced with serum-free medium containing the peptide quantities given in the graphs and the test reagent. The plates were then placed in the incubator at 37° C. and absorbance readings were taken at 1 h, 2 h, 3 h, 4 h and 5 h. […]
# [1] = test system: NHK-old (keratinocytes from elderly individuals); assay: Cell adhesion of NHK-old to immobilized peptide; conditions: 0 to 5 micrograms per well, 1 hour 37° C.
# Experimental: (§4) Dose-dependent cell adhesion of NHK-10 years versus NHK-71 years (A) and NHK-11 years versus NHK-60 years (B) peptides TALRIRATYHEY. The peptides were immobilized in 96-well plates at the concentrations given on the abscissa. 3.5×10^4 (A) cells and 4.3×10^4 (B) cells were deposited in each well and plates were incubated at 37° C. for 1 hour. After washing, attached cells were fixed and cell adhesion was measured as described in the methodology section (C). Cells were observed by phase contrast microscopy then photographed. Bar=50 μm.
# (§5) In order to obtain keratinocytes originating from biopsies taken from young and old individuals and taken from the same anatomical site, the inventors conducted a study of facial skin biopsies. The area of the face situated behind the ears was chosen in order to study only intrinsic aging and to overcome the effects of photo-induced aging. Surgery waste from cosmetic surgery (face lifts) in older individuals and surgery waste from detached ears in young children was collected. It is essential to use biopsies collected on the same day as surgery was performed in order to quickly place the epidermal keratinocytes in culture. Cells from biopsies on elderly individuals (60, 63 and 71 years) and young individuals (8, 10 and 11 years) were used for this study. The keratinocytes were obtained by means of the technique described by Boyce and Ham, 1985. […]
# NHK-old = assay: Cell proliferation test (XTT), NHK-old; conditions: peptide 0.05% and 0.1%, 5th hour
# Experimental: as §1, with “NHK-10 years” for “HT1080 cells (A)”, “NHK-71 years” for “HBL100 cells (B)”
# as §2, §3
# [2] = test system: NHK-young (keratinocytes from young individuals); assay: Cell adhesion of NHK-young to immobilized peptide
# Experimental: as §4
# as §5, with “1985. After careful washing in PBS buffer containing antibiotics, fatty tissue located under the dermis was removed from the skin fragments using sterile instruments. Skin was then cut into 3 mm^2 sections which were placed in a sterile solution of 0.25% trypsin in PBS for 16 hours at 4° C. Dermis/epidermis separation was performed using tweezers in a Petri dish containing culture medium in order to stop the enzyme action of trypsin. Epidermal fragments were then aspirated and blown out several times using a pipette in order to detach free basal cells.” for “1985.”
sequence,measurement,setting,value
TALRIRATYGEY (Human laminin 5) [Peptide 1],mean increase in cell proliferation compared to the control,HT1080 cells,8%
same,cell adhesion to immobilized peptide,[1],triggered dose-dependent cell adhesion
same,mean increase in proliferation compared to the control,NHK-old,≤ 7%
same,deposited peptide quantity triggering adhesion,[2]; NHK-young,0.08 µg
same,cell adhesion to immobilized peptide,"[2]; NHK-young, 0 to 5 micrograms per well, 1 hour 37° C.",triggered dose-dependent cell adhesion
same,number of NHK-young cells attached compared to NHK-old (fold),"[2]; both experiments (10 vs 71 years, 11 vs 60 years), identical cell numbers",~2
